Assay results from patent US7795299B2, “Neo-tanshinlactone and analogs as potent and selective anti-breast cancer agents” (The University of North Carolina at Chapel Hill, priority 2004, dated 2010).
Values after ≈ are worked out from the molar mass of the structure shown. Values joined by “and” are separate entries in the source; they are usually repeats but may differ in a detail not shown here. Equal entries are not always repeated. Structures can show the parent of a compound that is named as a salt.

Columns and labels:
[1] = test system: MCF-7 (estrogen receptor positive breast cancer); experiment: In vitro anticancer assay (SRB), MCF-7; assay type: cell-based, human; conditions: concentration that reduces cell growth by 50%, 3 days in culture, SRB; for IC50: Homo sapiens, MCF7, 72 h, read-out: ED50, MCF-7 (ER+)
Experimental: (§1) All stock cultures were grown in T-25 flasks. Freshly trypsinized cell suspensions were seeded in 96-well microtiter plates at densities of 1500-7500 cells per well with compounds added from DMSO-diluted stock. After 3 days in culture, attached cells were fixed with cold 50% trichloroacetic acid and then stained with 0.4% sulforhodamine B (SRB). The absorbency at 562 nm was measured using a microplate reader after solubilizing the bound dye.
(§2) Biological assay. All stock cultures are grown in T-25 flasks. Freshly trypsinized cell suspensions were seeded in 96-well microtitre plates at densities of 1500-7500 cells per well with compounds added from DMSO-diluted stock. After 3 days in culture, attached cells were fixed with cold 50% trichloroacetic acid and then stained with 0.4% sulforhodamine B (SRB). The absorbency at 562 nm was measured using a microplate reader after solubilizing the bound dye.

[2] = test system: MDA-MB-231 (estrogen receptor negative breast cancer); experiment: In vitro anticancer assay (SRB), MDA-MB-231; assay type: cell-based, human; conditions: concentration that reduces cell growth by 50%, 3 days in culture, SRB; for IC50: Homo sapiens, MDA-MB-231, 72 h, read-out: ED50, MDA-MB-231 (ER−)
Experimental: as §1, §2

[3] = test system: ZR-75-1 (estrogen receptor positive breast cancer); experiment: In vitro anticancer assay (SRB), ZR-75-1; assay type: cell-based, human; conditions: concentration that reduces cell growth by 50%, 3 days in culture; for IC50: Homo sapiens, ZR-75-1, 72 h, read-out: ED50, ZR-75-1 (ER+)
Experimental: as §1, §2

[4] = test system: HS 587-T (estrogen receptor negative breast cancer); experiment: In vitro anticancer assay (SRB), HS 587-T; assay type: cell-based, human; conditions: concentration that reduces cell growth by 50%, 3 days in culture
Experimental: as §1, §2

[5] = test system: SK-BR-3 (HER-2-overexpressing breast cancer); experiment: In vitro anticancer assay (SRB), SK-BR-3; assay type: cell-based, human; conditions: concentration that reduces cell growth by 50%, 3 days in culture, SRB; for IC50: Homo sapiens, SK-BR-3, 72 h, read-out: ED50, SK-BR-3 (ER−, HER2+)
Experimental: (§3) In Vitro Anticancer Assay (Nakanishi, Y. et al., J. Med. Chem. 2003, 46, 3185). All stock cultures were grown in T-25 flasks. Freshly trypsinized cell suspensions were seeded in 96-well microtiter plates at densities of 1500-7500 cells per well with compounds added from DMSO-diluted stock. After 3 days in culture, attached cells were fixed with cold 50% trichloroacetic acid and then stained with 0.4% sulforhodamine B (SRB). The absorbency at 562 nm was measured using a microplate reader after solubilizing the bound dye. The mean ED50 is the concentration of agent that reduces cell growth by 50% under the experimental conditions and is the average from at least three independent determinations that were reproducible and statistically significant (FIG. 2). The following human tumor cell lines were used in the assay: A549 (non small cell lung cancer), MCF-7 (estrogen receptor positive breast cancer), ZR-75-1 (estrogen receptor positive breast cancer), MDA-MB-231 (estrogen receptor negative breast cancer), HS 587-T (estrogen receptor negative breast cancer), SK− BR-3 (HER-2-overexpressing breast cancer), A431 (EGFRoverexpressing skin cancer), LN-CaP (AR-dependent prostate cancer), SW620 (colon cancer), PC-3 (prostate cancer), KB (nasopharyngeal carcinoma), KB-VIN (vincristine-resistant KB subline). All cell lines were obtained from the Lineberger Comprehensive Cancer Center (UNC-CH) or from ATCC (Rockville, Md.) and were cultured in RPMI-1640 medium supplemented with 25 mMHEPES, 0.25% sodium bicarbonate, 10% fetal bovine serum, and 100 μg/mL kanamycin.
(§4) Biological assay. All stock cultures are grown in T-25 flasks. Freshly trypsinized cell suspensions were seeded in 96-well microtitre plates at densities of 1500-7500 cells per well with compounds added from DMSO-diluted stock. After 3 days in culture, attached cells were fixed with cold 50% trichloroacetic acid and then stained with 0.4% sulforhodamine B (SRB). The absorbency at 562 nm was measured using a microplate reader after solubilizing the bound dye. The mean ED50 is the concentration of agent that reduces cell growth by 50% under the experimental conditions and is the average from at least three independent determinations that were reproducible and statistically significant. The following human tumor cell lines were used in the assay: A549 (non-small cell lung cancer), MCF-7 (estrogen receptor positive breast cancer), ZR-75-1 (estrogen receptor positive breast cancer), MDA MB-231 (estrogen receptor negative breast cancer), HS 587-T (estrogen receptor negative breast cancer), SK-BR-3 (estrogen receptor negative, HER-2 over-expressing breast cancer), A431 (EGFR over-expressing skin cancer), LN-CaP (AR-dependent prostate cancer), SW620 (colon cancer), PC-3 (prostate cancer), KB (nasopharyngeal carcinoma), KB-VIN (Vincristine resistant KB subline). All cell lines were obtained from the Lineberg Cancer Center (UNC-CH) or from ATCC (Rockville, Md.) and were cultured in RPMI-1640 medium supplemented with 25 mM HEPES, 0.25% sodium bicarbonate, 10% fetal bovine serum, and 100 μg/mL kanamycin.

[6] = test system: A431 (EGFR over-expressing skin cancer); experiment: In vitro anticancer assay (SRB), A431; assay type: cell-based, human; conditions: concentration that reduces cell growth by 50%, 3 days in culture, SRB; for IC50: Homo sapiens, A-431, 72 h, read-out: ED50, A431
Experimental: as §3, §4

[7] = test system: SW620 (colon cancer); experiment: In vitro anticancer assay (SRB), SW620; assay type: cell-based, human; conditions: concentration that reduces cell growth by 50%, 3 days in culture, SRB; for IC50: Homo sapiens, SW-620, 72 h, read-out: ED50, SW620
Experimental: as §3, §4

[8] = test system: KB (nasopharyngeal carcinoma); experiment: In vitro anticancer assay (SRB), KB; assay type: cell-based, human; conditions: concentration that reduces cell growth by 50%, 3 days in culture, SRB; for IC50: Homo sapiens, 72 h, read-out: ED50, KB
Experimental: as §3, §4

[9] = test system: ER+ human breast cancer (MCF-7 and ZR-75-1); experiment: Comparison of potency and selectivity against ER+ breast cancer cell lines in vitro; assay type: cell-based; conditions: against ER+ cell lines
Experimental: as §3
as §2, with “dye. The mean ED50 is the concentration of agent that reduces cell growth by 50% under the experimental conditions and is the average from at least three independent determinations that were reproducible and statistically significant. […]” for “dye.”

[10] = test system: several human cancer cell lines; experiment: Cytotoxic activity against several human tumor cell lines (panel, overall statements); assay type: cell-based; conditions: several human tumor cell lines, Table 4
Experimental: as §3
(§5) Biological assay. All stock cultures are grown in T-25 flasks. Freshly trypsinized cell suspensions were seeded in 96-well microtitre plates at densities of 1500-7500 cells per well with compounds added from DMSO-diluted stock. After 3 days in culture, attached cells were fixed with cold 50% trichloroacetic acid and then stained with 0.4% sulforhodamine B (SRB). The absorbency at 562 nm was measured using a microplate reader after solubilizing the bound dye. […]

[11] = test system: LN-CaP (AR-dependent prostate cancer); experiment: In vitro anticancer assay (SRB), LN-CaP; assay type: cell-based, human; conditions: concentration that reduces cell growth by 50%, 3 days in culture, SRB
Experimental: as §3
as §5, with “dye. The mean ED50 is the concentration of agent that reduces cell growth by 50% under the experimental conditions and is the average from at least three independent determinations that were reproducible and statistically significant.” for “dye.”

[12] = test system: PC-3 (prostate cancer); experiment: In vitro anticancer assay (SRB), PC-3; assay type: cell-based, human; conditions: concentration that reduces cell growth by 50%, 3 days in culture
Experimental: as §1, with “In Vitro Anticancer Assay (Nakanishi, Y. et al., J. Med. Chem. 2003, 46, 3185). All” for “All”, “dye. The mean ED50 is the concentration of agent that reduces cell growth by 50% under the experimental conditions and is the average from at least three independent determinations that were reproducible and statistically significant (FIG. 2). […]” for “dye.”
Biological assay. […] The absorbency at 562 nm was measured using a microplate reader after solubilizing the bound dye. […]

[13] = test system: KB-VIN (vincristine-resistant KB subline); experiment: In vitro anticancer assay (SRB), KB-VIN; assay type: cell-based, human; conditions: concentration that reduces cell growth by 50%, 3 days in culture, SRB
Experimental: as §3, §5

Cc1coc2c1c(=O)oc1c3ccccc3ccc21 [Compound 2a, 17-Methyl-11,15-dioxa-cyclopenta[a]phenanthren-12-one]
IC50 [1]: 4 µg/mL (≈ 16 µM)
IC50 [2]: 10.3 µg/mL (≈ 41.2 µM)
IC50 [3]: 4 µg/mL (≈ 16 µM)
ED50, HS 587-T (ER−) ([4]; printed HS587-1 in Table 4): 7.5 µg/mL (≈ 30 µM)
melting point: 205 to 207 °C

CCc1cccc2c1ccc1c3occ(C)c3c(=O)oc21 [Compound 2c, 4-Ethyl-17-methyl-11,15-dioxa-cyclopenta[a]phenanthren-12-one]
IC50 [1]: 0.45 µg/mL (≈ 1.62 µM)
IC50 [2]: 10.3 µg/mL (≈ 37 µM)
IC50 [3]: 0.18 µg/mL (≈ 0.647 µM)
ED50, HS 587-T (ER−) ([4]; printed HS587-1 in Table 4): 10 µg/mL (≈ 35.9 µM)
IC50 [5]: 0.1 µg/mL (≈ 0.359 µM)
IC50 [6]: > 10 µg/mL
IC50 [7]: > 10 µg/mL
IC50 [8]: > 10 µg/mL
times better activity than compound 2a and tamoxifen [9]: 10 times
melting point: 145 to 147 °C

Cc1coc2c1c(=O)oc1c3ccccc3c(Cl)cc21 [Compound 2d, 6-Chloro-17-methyl-11,15-dioxa-cyclopenta[a]phenanthren-12-one]
IC50 [1]: 5 µg/mL (≈ 17.6 µM)
IC50 [3]: 8.6 µg/mL (≈ 30.2 µM)
IC50 [5]: 4.5 µg/mL (≈ 15.8 µM)
IC50 [6]: 8 µg/mL (≈ 28.1 µM)
IC50 [7]: > 10 µg/mL
IC50 [8]: > 10 µg/mL
overall cytotoxic activity (in words) [10]: did not show strong activity
melting point: 220 to 221 °C

COc1cc2c3occ(C)c3c(=O)oc2c2ccccc12 [Compound 2e, 6-Methoxy-17-methyl-11,15-dioxa-cyclopenta[a]phenanthren-12-one]
IC50 [1]: 5 µg/mL (≈ 17.8 µM)
IC50 [3]: > 10 µg/mL
IC50 [5]: 8.6 µg/mL (≈ 30.7 µM)
IC50 [6]: 9.5 µg/mL (≈ 33.9 µM)
IC50 [7]: 9 µg/mL (≈ 32.1 µM)
IC50 [8]: > 10 µg/mL
overall cytotoxic activity (in words) [10]: did not show strong activity
melting point: 203 to 205 °C

COc1cc2c3occc3c(=O)oc2c2ccccc12 [Compound 4e, 6-Methoxy-11,15-dioxa-cyclopenta[a]phenanthren-12-one]
IC50 [1]: 3.4 µg/mL (≈ 12.8 µM)
IC50 [3]: 8.5 µg/mL (≈ 31.9 µM)
IC50 [5]: 4 µg/mL (≈ 15 µM)
IC50 [6]: 9.5 µg/mL (≈ 35.7 µM)
IC50 [7]: 4 µg/mL (≈ 15 µM)
IC50 [8]: 9.5 µg/mL (≈ 35.7 µM)
melting point: 194 to 195 °C

CC/C(=C(\c1ccccc1)c1ccc(OCCN(C)C)cc1)c1ccccc1 [TAM, tamoxifen citrate, reference compound]
IC50 [1]: 5 µg/mL
ED50, MCF-7 (ER+) [1]: 5.0 µg/mL
ED50, MCF-7 (ER+) ([1]; listed as Tamoxifen citrate): 5.0 µg/mL
IC50 [2]: 8 µg/mL
ED50, MDA-MB-231 (ER−) ([2]; listed as Tamoxifen citrate): 7.0 µg/mL
IC50 [3]: 5 µg/mL
ED50, ZR-75-1 (ER+) ([3]; listed as Tamoxifen citrate): 3.6 µg/mL
ED50, HS 587-T (ER−) ([4]; printed HS587-1 in Table 4): 9 µg/mL and 7.0 µg/mL
ED50, HS 587-T (ER−) ([4]; printed HS587-1 in Table 4, listed as Tamoxifen citrate): 8.5 µg/mL
IC50 [5]: 5 µg/mL
ED50, SK-BR-3 (ER−, HER2+) [5]: 5.0 µg/mL
IC50 [6]: 7 µg/mL
ED50, A431 [6]: 7.0 µg/mL
ED50, LN-CaP [11]: 6 µg/mL
IC50 [7]: 4 µg/mL
ED50, SW620 [7]: 4.0 µg/mL
ED50, PC-3 [12]: 10 µg/mL
IC50 [8]: 9 µg/mL
ED50, KB [8]: 9.0 µg/mL
ED50, KB-VIN [13]: 9 µg/mL
